Data reported in patent US12552799B2, “Triazolone compounds” (Nxera Pharma UK Limited, priority 2020, dated 2026).

Assays:
[1] = biological target: human adenosine A1 receptor (Homo sapiens (Human), UniProt P30542); assay: Adenosine receptor binding assay, A1 ([3H]DPCPX inhibition binding on membranes); settings: 1 nM [3H]DPCPX, 25° C., 1 h, Ki from IC50 by Cheng-Prusoff
Procedure: (§1) Inhibition binding assays were performed using 0.2 μg of membranes prepared from HEK293 cells infected with BacMam human adenosine A2A receptor or 1.4 μg of membranes prepared from HEK293 cells infected with BacMam human adenosine A1 receptor. Membranes were incubated in 50 mM Tris-HCl (HEK293-hA2A; pH 7.4) or 50 mM Tris-HCl, 100 mM NaCl, 10 mM MgCl2 (CHO-hA1; pH 7.4) in the presence of varying concentrations of test compound and 1 nM [^3H]ZM241385 (HEK293-hA2A) or [^3H]DPCPX (CHO-hA1) at 25° C. for 1 h. The assay was then terminated by rapid filtration onto GF/B grade Unifilter plates using a TomTec cell harvester, followed by 5×0.5 ml washes with ddH2O. Nonspecific binding was defined in the presence of 1 μM CGS15943 (HEK293-hA2A) or 1 μM DPCPX (CHO-hA1). Bound radioactivity was determined by liquid scintillation counting and inhibition curves were analysed using a four-parameter logistic equation. IC50 values were converted to Ki values with the Cheng-Prusoff equation using a KD value derived from saturation binding studies.

[2] = biological target: human adenosine A2A receptor (Homo sapiens (Human), UniProt P29274); assay: Adenosine receptor binding assay, A2A ([3H]ZM241385 inhibition binding on HEK293 membranes); settings: 1 nM [3H]ZM241385, 25° C., 1 h, Ki from IC50 by Cheng-Prusoff
Sequence of human adenosine A2A receptor (P29274 whole entry): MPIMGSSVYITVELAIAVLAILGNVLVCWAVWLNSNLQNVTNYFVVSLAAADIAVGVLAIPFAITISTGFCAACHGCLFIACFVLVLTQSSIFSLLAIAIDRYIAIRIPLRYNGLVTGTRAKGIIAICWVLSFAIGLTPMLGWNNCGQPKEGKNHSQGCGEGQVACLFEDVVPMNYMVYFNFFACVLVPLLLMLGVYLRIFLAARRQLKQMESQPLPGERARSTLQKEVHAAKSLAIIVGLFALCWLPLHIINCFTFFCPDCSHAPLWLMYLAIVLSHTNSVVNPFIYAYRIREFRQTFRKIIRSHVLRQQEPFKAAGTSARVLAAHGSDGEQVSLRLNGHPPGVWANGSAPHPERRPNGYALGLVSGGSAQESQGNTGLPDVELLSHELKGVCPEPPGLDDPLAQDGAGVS
Procedure: as §1

[3] = biological target: human CB-1 cannabinoid receptor (Homo sapiens (Human), UniProt P21554); assay: CB-1 receptor radioligand binding assay ([3H]CP 55940, transfected CHO cell membranes); settings: 0.5 nM [3H]CP 55940, 120 min at 37° C., agonist site
Sequence of human CB-1 cannabinoid receptor (P21554 whole entry): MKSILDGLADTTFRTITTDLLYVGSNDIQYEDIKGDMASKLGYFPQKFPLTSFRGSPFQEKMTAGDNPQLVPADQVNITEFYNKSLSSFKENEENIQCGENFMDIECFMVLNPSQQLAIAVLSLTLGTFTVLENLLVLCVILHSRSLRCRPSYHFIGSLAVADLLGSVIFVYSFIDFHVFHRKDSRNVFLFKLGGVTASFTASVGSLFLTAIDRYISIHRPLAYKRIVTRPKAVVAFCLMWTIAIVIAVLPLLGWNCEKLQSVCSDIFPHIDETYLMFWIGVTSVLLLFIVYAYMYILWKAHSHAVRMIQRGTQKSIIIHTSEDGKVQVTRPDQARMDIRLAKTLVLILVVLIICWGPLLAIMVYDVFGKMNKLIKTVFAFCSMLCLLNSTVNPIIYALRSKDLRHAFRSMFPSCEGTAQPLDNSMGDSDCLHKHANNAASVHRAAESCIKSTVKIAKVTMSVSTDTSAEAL
Procedure: Nonspecific binding is determined in the presence of 10 μM WIN 55212-2.
Following incubation, the samples are filtered rapidly under vacuum through glass fiber filters (GF/B, Packard) presoaked with 0.3% PEI and rinsed several times with an ice-cold buffer containing 50 mM Tris-HCl (pH 7.4) and 0.5% BSA using a 96-sample cell harvester (Unifilter, Packard). The filters are dried then counted for radioactivity in a scintillation counter (Topcount, Packard) using a scintillation cocktail (Microscint O, Packard).
The standard reference compound is CP 55940 which is tested in each experiment at several concentrations to obtain a competition curve from which its IC50 is calculated.
In Table 5, blank entries for Ki indicate that the observed binding was too weak to measure a Ki value.

human CB1 receptor = human CB1 receptor (Homo sapiens (Human), UniProt P21554); assay: CB1 receptor antagonism, agonist-induced cAMP modulation (HTRF) in transfected CHO cells; type: cell-based; settings: inhibition of control response to 3 nM CP 55940, cAMP HTRF, read-out: Antag IC50
Sequence of human CB1 receptor (P21554 whole entry): as above
Procedure: Receptor antagonism: Evaluation of the antagonist activity of compounds at the human CB1 receptor expressed in transfected CHO cells, determined by measuring their effects on agonist-induced cAMP modulation using the HTRF detection method.
The cells are suspended in HBSS buffer (Invitrogen) complemented with 20 mM HEPES (pH 7.4), then distributed in microplates at a density of 5.10^3 cells/well and preincubated for 5 min at room temperature in the presence of either of the following: HBSS (stimulated control), the reference antagonist AM 281 at 3 μM (basal control) or various concentrations (IC50 determination), or the test compounds.
Thereafter, the reference agonist CP 55940 and the adenylyl cyclase activator NKH 477 are added at respective final concentrations of 3 nM and 3 μM.
For basal control measurements, CP 55940 is omitted from the wells containing 3 μM AM 281.
Following 20 min incubation at 37° C., the cells are lysed and the fluorescence acceptor (D2-labeled cAMP) and fluorescence donor (anti-cAMP antibody labeled with europium cryptate) are added.
After 60 min at room temperature, the fluorescence transfer is measured at λex=337 nm and λem=620 and 665 nm using a microplate reader (Rubystar, BMG). The cAMP concentration is determined by dividing the signal measured at 665 nm by that measured at 620 nm (ratio).
The results are expressed as a percent inhibition of the control response to 3 nM CP 55940.
The standard reference antagonist is AM 281, which is tested in each experiment at several concentrations to generate a concentration-response curve from which its IC50 value is calculated.

Sequence of human adenosine A1 receptor (P30542 whole entry): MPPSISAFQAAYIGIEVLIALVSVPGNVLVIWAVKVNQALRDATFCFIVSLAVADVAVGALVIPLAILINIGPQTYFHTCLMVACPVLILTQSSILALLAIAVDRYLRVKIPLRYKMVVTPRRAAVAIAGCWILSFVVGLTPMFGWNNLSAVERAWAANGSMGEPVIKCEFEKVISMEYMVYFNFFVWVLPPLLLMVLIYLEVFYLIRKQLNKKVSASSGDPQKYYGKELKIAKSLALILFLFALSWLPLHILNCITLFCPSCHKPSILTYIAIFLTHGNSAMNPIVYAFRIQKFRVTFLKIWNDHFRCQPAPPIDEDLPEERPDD

A1 pKi [1] | A2A pKi [2] | Ki [3] [µM] | IC50 (human CB1 receptor) [µM] | Ki ([1]; read-out: A1 pKi (converted)) [µM] | Ki ([2]; read-out: A2A pKi (converted)) [µM] | Structure (SMILES)
6.3 | 8.6 | 31.5 | 72.2 | – | – | C[C@@H]1CC(c2c(-c3ccccc3)nc(N)n3c(=O)n(CCC(F)(F)F)nc23)=C[C@H](C)O1 (relative stereo) [Example 2-1, 5-amino-8-[(cis)-2,6-dimethyl-3,6-dihydro-2H-pyran-4-yl]-7-phenyl-2-(3,3,3-trifluoropropyl)-[1,2,4]triazolo[4,3-c]pyrimidin-3-one]
<5.4 | 8.3 | 33.9 | 14.7 | – | – | C[C@@H]1CN(c2c(-c3ccccc3)nc(N)n3c(=O)n(CCC(F)(F)F)nc23)C[C@H](C)O1 [Example 1-1, 5-amino-8-[(cis)-2,6-dimethylmorpholin-4-yl]-7-phenyl-2-(3,3,3-trifluoropropyl)-[1,2,4]triazolo[4,3-c]pyrimidin-3-one]
– | – | – | > 100 | – | – | C[C@@H]1CN(c2c(-c3ccccc3)nc(N)n3c(=O)n(C[C@H]4CCCO4)nc23)C[C@H](C)O1 [Example 1-8, 5-amino-8-[(cis)-2,6-dimethylmorpholin-4-yl]-7-phenyl-2-[[(2R)-tetrahydrofuran-2-yl]methyl]-[1,2,4]triazolo[4,3-c]pyrimidin-3-one]
5.9 | 7.9 | 9.5 | 7 | – | – | C[C@@H]1CN(c2c(-c3ccccc3)nc(N)n3c(=O)n(Cc4ccc(F)cn4)nc23)C[C@H](C)O1 [Example 1-14, 5-amino-8-[(cis)-2,6-dimethylmorpholin-4-yl]-2-[(5-fluoro-2-pyridyl)methyl]-7-phenyl-[1,2,4]triazolo[4,3-c]pyrimidin-3-one]
– | – | – | > 100 | – | – | Cc1cc(-c2c(-c3ccccc3)nc(N)n3c(=O)n(Cc4ccc(F)cn4)nc23)cc(C)c1O [Example 3-1, 5-amino-2-[(5-fluoro-2-pyridyl)methyl]-8-(4-hydroxy-3,5-dimethyl-phenyl)-7-phenyl-[1,2,4]triazolo[4,3-c]pyrimidin-3-one]
6.5 | 9.3 | 3.7 | 2.4 | – | – | Cc1cc(-c2c(-c3ccc(F)cc3)nc(N)n3c(=O)n(CCC(F)(F)F)nc23)cc2ocnc12 [Example 4-1, 5-amino-7-(4-fluorophenyl)-8-(4-methyl-1,3-benzoxazol-6-yl)-2-(3,3,3-trifluoropropyl)-[1,2,4]triazolo[4,3-c]pyrimidin-3-one]
– | – | 5.5 | 1.3 | 0.0251 | 0.000251 | Cc1cc(-c2c(-c3ccccc3)nc(N)n3c(=O)n(Cc4ccc(F)cn4)nc23)cc2cn[nH]c12 [Example 4-4, 5-amino-2-[(5-fluoro-2-pyridyl)methyl]-8-(7-methyl-1H-indazol-5-yl)-7-phenyl-[1,2,4]triazolo[4,3-c]pyrimidin-3-one]
7.0 | 9.0 | 24.4 | 68.6 | – | – | Cc1cc(-c2c(-c3ccccc3)nc(N)n3c(=O)n(Cc4ccc(F)cn4)nc23)cc2nc[nH]c12 [Example 4-5, 5-amino-2-[(5-fluoro-2-pyridyl)methyl]-8-(7-methyl-1H-benzimidazol-5-yl)-7-phenyl-[1,2,4]triazolo[4,3-c]pyrimidin-3-one]
– | – | – | 17.9 | – | – | Cc1ocnc1Cn1nc2c(-c3cc(C)c4ncoc4c3)c(-c3ccccc3)nc(N)n2c1=O [Example 4-6, 5-amino-8-(4-methyl-1,3-benzoxazol-6-yl)-2-[(5-methyloxazol-4-yl)methyl]-7-phenyl-[1,2,4]triazolo[4,3-c]pyrimidin-3-one]
8.8 | 10.1 | 39.1 | 15.5 | – | – | Cc1ocnc1Cn1nc2c(-c3cc(C)c4[nH]ncc4c3)c(-c3ccccc3)nc(N)n2c1=O [Example 4-9, 5-amino-8-(7-methyl-1H-indazol-5-yl)-2-[(5-methyloxazol-4-yl)methyl]-7-phenyl-[1,2,4]triazolo[4,3-c]pyrimidin-3-one]
8.7 | 9.8 | 2.5 | 2.6 | – | – | Cc1ocnc1Cn1nc2c(-c3cc(Cl)c4[nH]ncc4c3)c(-c3ccccc3)nc(N)n2c1=O [Example 4-11, 5-amino-8-(7-chloro-1H-indazol-5-yl)-2-[(5-methyloxazol-4-yl)methyl]-7-phenyl-[1,2,4]triazolo[4,3-c]pyrimidin-3-one]
7.2 | 9.3 | 39.6 | 22.5 | – | – | Cc1ocnc1Cn1nc2c(-c3cc(C)c4[nH]ccc4c3)c(-c3ccccc3)nc(N)n2c1=O [Example 4-12, 5-amino-8-(7-methyl-1H-indol-5-yl)-2-[(5-methyloxazol-4-yl)methyl]-7-phenyl-[1,2,4]triazolo[4,3-c]pyrimidin-3-one]
